What was measured:
BTK wild-type kinase = BTK wild-type kinase (Homo sapiens (Human), UniProt Q06187); assay: BTK kinase activity inhibition test in vitro (Caliper EZ Reader); type: biochemical
Procedure, shortened: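 Compound (10 mM DMSO stock) preincubated with kinase 10 min at room temperature, then ATP plus kinase substrate 2 added, 10 min reaction at room temperature before stop. Substrate conversion read by Caliper mobility shift; inhibition normalised to no-enzyme and no-compound controls, IC50 by variable-slope log(inhibitor) fit.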

TMD8 cell proliferation = assay: In vitro cell proliferation inhibitory activity test (CTG), TMD8; type: cell-based, human; conditions: TMD8 cells, 72 h
Protocol: (§1) Test Example 4: In Vitro Cell Proliferation Inhibitory Activity Test
(§2) Cells were cultured in 1640 medium, added with 10% inactivated FBS and 1% double antibiotics, and cultured at 37° C. and 5% CO2.
(§3) (1) Cells were routinely cultured until the cell density was 80%-90%, and the cells were harvested when their number reached the requirement.
(§4) (2) Cells were resuspended with corresponding culture medium, counted, and prepared into cell suspension at appropriate density.
(§5) (3) The cell suspension was added to a 96-well plate, 100 µL per well.
(§6) (4) Cells were cultured overnight in a 37° C., 5% CO2 incubator.
(§7) (1) The compounds to be tested were diluted with DMSO to make a stock solution with a final concentration of 20 mM for later use.
(§8) (2) The stock solution was diluted 10 times from 20 mM to 2 mM with DMSO, and then diluted 3 times from 2 mM to 9 concentrations.
(§9) (3) The blank control wells were cells plus 0.5% DMSO, as high-reading control wells.
(§10) (4) Wells with no cells and only medium were used as low-reading control wells.
(§11) 4: Cell Treatment With Compound
(1) 24 h after the cells were plated, the compounds acted alone, and 99 µL of growth medium was added to each well, followed by 1 µL of the compound prepared in step 3. The plate was shaken gently to mix uniformly, and then placed in a 37° C., 5% CO2 incubator.
(2) The cell plate was placed in an incubator for 72 h.
5: Detection by CTG Method
(1) The cell plate to be tested was placed at room temperature for 30 min, and 100 µL of medium was discarded from each well.
(2) 100 µL of CTG reagent (CelltiterGlo kit) was added to each well, placed on a fast shaker for 2 min, and stood at room temperature in the dark for 30 min.
(§12) (3) The chemiluminescent signal value was read with the Envision instrument.
IC50 was calculated by using GraphPad Prism 8 software. The IC50 (half inhibitory concentration) of the compound was derived using the following nonlinear fitting formula, and the results are shown in the following table: […]

BT474 cell proliferation = assay: In vitro cell proliferation inhibitory activity test (CTG), BT474; type: cell-based
Protocol: as §1, §2, §3, §4, §5, §6, §7, §8, §9, §10, §11
(1) 24 h after the cells were plated, the compounds acted alone, and 99 µL of growth medium was added to each well, followed by 1 µL of the compound prepared in step 3. […]
as §12
IC50 was calculated by using GraphPad Prism 8 software. […]

[1] = Liver microsome metabolic stability test, human; type: in vitro ADME; conditions: for half-life: liver microsomes, 0.5 mg/mL protein, read-out: T½
Procedure, shortened: (§13)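 Test compound was incubated with rat or human liver microsomes (working solution 0.5 mg/mL protein) after a 10 min pre-incubation at 37 °C, and the reaction was started with an NADPH regenerating system; a no-NADPH control ran to 60 min. Samples were quenched with acetonitrile at 0–60 min and analysed by LC-MS/MS. T½ and CLint(mic) (µL/min/mg) come from first-order elimination kinetics.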

[2] = Liver microsome metabolic stability test, rat; type: in vitro ADME; conditions: for half-life: liver microsomes, 0.5 mg/mL protein, read-out: T½
Procedure, shortened: as §13

[3] = Pharmacokinetic test, oral, SD rats; type: in vivo; conditions: oral 10 mg/kg, plasma; for AUC(0-inf) / Cmax / half-life: rat; for Cmax: read-out: Cmax; for half-life: read-out: T½ (converted)
Procedure, shortened: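 Male/female status unstated; SD rats (3 per group) dosed orally at 10 mg/kg after overnight fast, refed 4 h post-dose. Plasma from serial blood draws stored at -20° C, protein-precipitated with internal standard solution and quantified by LC-MS/MS.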

[4] = dog PK experiments; cited from earlier work
[5] = mice; cited from earlier work

BTK wild-type kinase, sequence (Q06187 whole entry): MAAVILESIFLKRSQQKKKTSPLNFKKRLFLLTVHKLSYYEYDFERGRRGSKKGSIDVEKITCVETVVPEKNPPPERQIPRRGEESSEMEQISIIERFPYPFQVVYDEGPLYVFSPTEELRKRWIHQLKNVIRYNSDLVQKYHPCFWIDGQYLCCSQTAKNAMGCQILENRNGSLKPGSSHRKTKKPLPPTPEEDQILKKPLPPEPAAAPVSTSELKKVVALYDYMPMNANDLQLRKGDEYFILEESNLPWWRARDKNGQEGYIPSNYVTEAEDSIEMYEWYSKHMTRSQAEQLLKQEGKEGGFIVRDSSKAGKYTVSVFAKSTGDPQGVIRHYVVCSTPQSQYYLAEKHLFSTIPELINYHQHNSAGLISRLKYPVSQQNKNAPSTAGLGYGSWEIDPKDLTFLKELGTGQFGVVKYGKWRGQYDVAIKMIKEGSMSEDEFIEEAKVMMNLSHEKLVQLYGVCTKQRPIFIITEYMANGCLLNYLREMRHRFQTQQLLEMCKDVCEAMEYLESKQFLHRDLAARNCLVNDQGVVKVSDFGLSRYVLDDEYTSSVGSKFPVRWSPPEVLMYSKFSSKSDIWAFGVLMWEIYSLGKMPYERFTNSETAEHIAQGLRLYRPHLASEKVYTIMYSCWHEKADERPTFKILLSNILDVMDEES

Row | Structure (SMILES) | IC50 (BTK wild-type kinase) | IC50 (TMD8 cell proliferation) | IC50 (BT474 cell proliferation) | %Remaining (60 min) [1] | half-life [1] | %Remaining (60 min) [2] | half-life [2] | Cl [3] | AUC(0-inf) [3] | Cmax [3] | half-life [3] | bioavailability [4] | brain permeability rate [5]
1 | Nc1nccn2c(C3CCC(CO)OC3)nc(-c3ccc(C(F)(F)c4ccccc4)cc3)c12 (single isomer, unassigned) [Compound 111-P2] | 20 to 100 nM | 275 nM | 2180 nM |  |  |  |  |  |  |  |  |  | 
2 | O=C(c1ccc(Oc2ccccc2)cc1Cl)c1c[nH]c2ncnc(N[C@@H]3CC[C@@H](CO)OC3)c12 [ARQ-531, reference compound] |  |  |  | 94.2% | > 2.42 h | 81.1% | > 2.42 h | 10.3 mL/min/kg | 16200 ng·h/mL | 2410 ng/mL | 3.98 h | 38% | 
3 | Cc1cc(Nc2ncnc3ccc(NC4=NC(C)(C)CO4)cc23)ccc1Oc1ccn2ncnc2c1 [Tucatinib, reference compound] |  |  |  | 28.8% | 0.53 h | 38.2% | 0.663 h | 161.3 mL/min/kg | 2270 ng·h/mL | 445 ng/mL | 1.72 h |  | less than 5%
